In patent US20060154895A1, “Method of treating acquired immunedeficiency syndrome” (priority 2004, published 2006):

Columns and labels:
T-cells = experiment: Blood T-cell levels after curdlan sulfate alone in HIV infected patients; assay type: in vivo, human; conditions: curdlan sulfate administered by itself to HIV infected patients
Excerpt: The present invention provides a treatment method for HIV infections that is designed to completely eradicate the HIV virus. […] The reappearance of HIV virus in the blood after the interruption of current therapies makes it likely that the HIV virus is capable of being retained in some biological reservoir where current therapies are unable to create an environment that inhibits or destroys the HIV virus. […] The large increase in T-cells is believed to be due to a release or flushing of T-cells from a biological repository or storage site rather than a biological production of new T-cells. This phenomenon has caused the applicants to theorize that the repository or storage site for the T-cells is also a sanctuary for the HIV virus which appears to have an ability to shield itself from the effects of anti-HIV drugs which are circulated in the blood to all of the bodies organs. The invention is directed to the administration of an entry/fusion inhibitor after a HAART drug combination has been administered in an effective amount for a sufficient time to cause the HIV cells to been eradicated from the blood stream. Thereafter, the entry/fusion inhibitor is administered in an effective amount for a sufficient period of time to eradicate the HIV cells.

[1] = Tolerance screening: daily IV dose escalation of curdlan sulfate until APTT is doubled (MTD); assay type: in vivo, human; conditions: IV infusion, HIV positive patients
Protocol: Patients are selected for treatment with the method of the invention based on the fact that they have previously tested positive for HIV and presently have some detectable level of HIV. Initially, the patients are screened for the effect of curdlan sulfate on coagulation times by measuring the time to coagulation using the activated partial thromboplastin time test (APTT) after IV infusion of 50 mg of curdlan sulfate in over a period of 30 minutes. A test dose of […] of curdlan sulfate is given on the first day and each day thereafter, the dose of curdlan sulfate is increased in 50 mg increments until the APTT is doubled. […] When the MTD is determined for each patient, the MTD is repeated daily for 21 days while the particular dosage regimen of the HAART drugs is continued. After the 21 days of curdlan sulfate therapy is completed, the HAART treatment regimen is also suspended and the viral load is determined daily. If there is no measurable viral load after this treatment, the treatment is deemed to be successful. If the viral load returns to measurable levels for three days, the HAART therapy may be reinstituted followed by another sequence of curdlan sulfate therapy.

Substance: curdlan sulfate
- detectable blood levels of T-cells (T-cells): large increases in detectable bloods levels of T-cells
- bleeding at the MTD [1]: no bleeding at the site of injection or elsewhere is detected
